Laboratory results taken from patent publication US20160354443A1, “Replacement Therapy for Natriuretic Peptide Deficiencies” (priority 2014, published 2016).
Positions of bridges follow the written chain, without caps; N, C: chain ends. Non-standard residues stand in square brackets, D forms with d. Residues, ends and D or L forms follow the SMILES beside them. *: point of attachment. X1 = N=C(N)NCCC[C@H]1C(=O)N[C@@H](C(N)=O)CN1*; dNle = CCCC[C@@H](N)C(=O)O; Heptanoyl = CCCCCCC(=O)*

Key:
[1] = Potter et al. 2009; cited from earlier work
hNPRB (human NPRB) = biological target: T1, hNPRB (human NPRB) (Homo sapiens, UniProt P20594); experiment: NPRB functional assay (cGMP generation) in HEK cell line; type: cell-based; conditions: HEK293, mean ± SD, read-out: hNPRB Function (cGMP) Emax (%)
T1 construct: expressed in transfected cells; host or cells: HEK cell line
T1 sequence (P20594 23-1047): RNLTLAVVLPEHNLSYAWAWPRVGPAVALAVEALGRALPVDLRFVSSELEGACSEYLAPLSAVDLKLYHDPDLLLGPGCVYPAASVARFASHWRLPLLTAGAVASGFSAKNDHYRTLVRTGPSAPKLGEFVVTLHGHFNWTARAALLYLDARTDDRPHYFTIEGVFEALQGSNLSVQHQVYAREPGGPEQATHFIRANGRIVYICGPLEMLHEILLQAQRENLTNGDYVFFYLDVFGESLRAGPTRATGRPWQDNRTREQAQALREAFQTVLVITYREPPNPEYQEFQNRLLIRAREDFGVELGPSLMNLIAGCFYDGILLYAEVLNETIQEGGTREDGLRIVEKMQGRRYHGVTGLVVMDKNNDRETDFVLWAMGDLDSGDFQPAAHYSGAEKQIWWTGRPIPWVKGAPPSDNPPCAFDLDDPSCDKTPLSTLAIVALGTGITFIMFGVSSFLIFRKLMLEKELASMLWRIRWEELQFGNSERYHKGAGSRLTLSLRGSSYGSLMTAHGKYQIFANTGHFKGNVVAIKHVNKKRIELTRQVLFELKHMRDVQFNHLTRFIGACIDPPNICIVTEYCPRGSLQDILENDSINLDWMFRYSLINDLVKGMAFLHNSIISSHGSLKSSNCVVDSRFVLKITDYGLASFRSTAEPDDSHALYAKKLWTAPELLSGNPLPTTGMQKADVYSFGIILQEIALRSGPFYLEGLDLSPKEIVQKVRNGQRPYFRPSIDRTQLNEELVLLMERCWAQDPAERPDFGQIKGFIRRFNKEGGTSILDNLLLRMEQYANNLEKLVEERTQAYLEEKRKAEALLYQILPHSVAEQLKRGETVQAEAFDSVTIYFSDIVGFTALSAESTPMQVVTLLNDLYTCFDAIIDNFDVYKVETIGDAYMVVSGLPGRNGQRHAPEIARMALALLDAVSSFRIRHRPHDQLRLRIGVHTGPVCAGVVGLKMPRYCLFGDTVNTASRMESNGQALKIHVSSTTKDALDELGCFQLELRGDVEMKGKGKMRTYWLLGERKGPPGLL

[2] = Human clinical trial, subcutaneous formulation: half life; conditions: in vivo, sc, subcutaneously administered formulation
Method: In a human clinical trial of a subcutaneously administered formulation in which the mimetic of formula IV was the active pharmaceutical ingredient, the half life of the mimetic of formula IV was determined to be approximately 3 hours. The mimetic of formula IV lead to a mean peak increase in plasma cGMP concentration of 1.7 ng/mL at a dose of 0.3 μg/kg of the mimetic of formula IV as a single, subcutaneous injection.

plasma cGMP = experiment: Safety study in healthy volunteers: pharmacodynamic parameters (plasma cGMP); type: in vivo, human; conditions: mean ± SD
Method: (§1) In a safety study, the mimetic of formula IV was administered to healthy volunteers. Doses of 0.1, 0.3, 0.7 and 1.0 μg/kg of the mimetic of formula IV were administered.
(§2) Kel is the apparent terminal elimination rate constant, calculated by linear regression of the terminal linear portion of the log concentration versus the time curve. The plasma cGMP concentrations returned to baseline levels by approximately 8 hours after dosing following 0.7 μg/kg and 1.0 μg/kg of the mimetic of formula IV.

[3] = as above; type: in vivo, human; conditions: human, in vivo, mean ± SD, read-out: t½ (converted)
Method: as §1, §2

human NPRA = biological target: T2, human NPRA (Homo sapiens, UniProt P16066); experiment: cGMP generation in HEK cells expressing human NPRA; type: cell-based; conditions: mean ± SD
T2 sequence (P16066 33-1061): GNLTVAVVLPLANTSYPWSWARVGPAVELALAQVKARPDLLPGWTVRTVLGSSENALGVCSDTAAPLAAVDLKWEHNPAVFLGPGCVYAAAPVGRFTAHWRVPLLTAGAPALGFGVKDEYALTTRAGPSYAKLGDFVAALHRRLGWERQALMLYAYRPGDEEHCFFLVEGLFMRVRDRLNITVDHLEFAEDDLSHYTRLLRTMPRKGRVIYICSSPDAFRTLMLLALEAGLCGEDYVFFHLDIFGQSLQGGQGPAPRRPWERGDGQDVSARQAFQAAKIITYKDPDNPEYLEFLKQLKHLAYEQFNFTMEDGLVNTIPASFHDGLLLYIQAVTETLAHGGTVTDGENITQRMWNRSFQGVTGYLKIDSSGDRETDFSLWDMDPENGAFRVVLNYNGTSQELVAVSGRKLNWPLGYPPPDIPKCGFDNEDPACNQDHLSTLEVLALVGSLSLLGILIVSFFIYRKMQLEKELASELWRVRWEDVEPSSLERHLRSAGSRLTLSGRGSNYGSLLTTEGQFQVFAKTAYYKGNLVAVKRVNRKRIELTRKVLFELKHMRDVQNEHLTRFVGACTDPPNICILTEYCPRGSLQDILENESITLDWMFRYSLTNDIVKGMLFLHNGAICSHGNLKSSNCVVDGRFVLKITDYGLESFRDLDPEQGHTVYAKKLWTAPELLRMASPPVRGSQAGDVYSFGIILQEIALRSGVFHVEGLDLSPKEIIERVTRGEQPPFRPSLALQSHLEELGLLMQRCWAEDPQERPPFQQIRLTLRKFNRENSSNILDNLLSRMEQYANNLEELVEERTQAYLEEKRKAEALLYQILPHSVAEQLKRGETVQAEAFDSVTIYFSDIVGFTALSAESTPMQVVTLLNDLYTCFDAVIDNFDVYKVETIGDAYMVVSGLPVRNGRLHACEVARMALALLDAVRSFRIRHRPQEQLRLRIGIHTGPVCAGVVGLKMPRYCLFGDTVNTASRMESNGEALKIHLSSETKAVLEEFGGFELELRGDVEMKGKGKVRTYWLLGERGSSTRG
Method: Functional evaluation of natriuretic peptide mimetics was performed by measuring the accumulation of intracellular cGMP in HEK-293 cells that express recombinant hNPR-A. HEK-NPRA cells were harvested by washing and centrifugation in Cell Dissociation Buffer (Gibco, Life Technologies). Pelleted cells were resuspended in Hank's Balanced Salt Solution (HBSS) containing 10 mM Hepes (pH 7.4), 5 mM MgCl2, 200 mM L-glutamine, 1 mM 1,10-phenanthroline and BSA (0.5 mg/mL). Following centrifugation, cells were resuspended in the above buffer supplemented with 0.5 mM 3-isobutyl-1-methylxanthine (IBMX). […] The reaction was terminated by lysis of the cells with temperature shock. […] Accumulation of cGMP was measured using the cGMP Flashplate RIA (Perkin-Elmer). Data analysis and EC50 values were determined by using nonlinear regression analysis with GraphPad Prism® software.

rat NPRA = biological target: T3, rat NPRA (Rattus norvegicus, UniProt P18910); experiment: cGMP generation in HEK cells expressing rat NPRA; type: cell-based; conditions: mean ± SD
T3 construct: expressed in transfected cells; host or cells: HEK cell line
T3 sequence (P18910 29-1057): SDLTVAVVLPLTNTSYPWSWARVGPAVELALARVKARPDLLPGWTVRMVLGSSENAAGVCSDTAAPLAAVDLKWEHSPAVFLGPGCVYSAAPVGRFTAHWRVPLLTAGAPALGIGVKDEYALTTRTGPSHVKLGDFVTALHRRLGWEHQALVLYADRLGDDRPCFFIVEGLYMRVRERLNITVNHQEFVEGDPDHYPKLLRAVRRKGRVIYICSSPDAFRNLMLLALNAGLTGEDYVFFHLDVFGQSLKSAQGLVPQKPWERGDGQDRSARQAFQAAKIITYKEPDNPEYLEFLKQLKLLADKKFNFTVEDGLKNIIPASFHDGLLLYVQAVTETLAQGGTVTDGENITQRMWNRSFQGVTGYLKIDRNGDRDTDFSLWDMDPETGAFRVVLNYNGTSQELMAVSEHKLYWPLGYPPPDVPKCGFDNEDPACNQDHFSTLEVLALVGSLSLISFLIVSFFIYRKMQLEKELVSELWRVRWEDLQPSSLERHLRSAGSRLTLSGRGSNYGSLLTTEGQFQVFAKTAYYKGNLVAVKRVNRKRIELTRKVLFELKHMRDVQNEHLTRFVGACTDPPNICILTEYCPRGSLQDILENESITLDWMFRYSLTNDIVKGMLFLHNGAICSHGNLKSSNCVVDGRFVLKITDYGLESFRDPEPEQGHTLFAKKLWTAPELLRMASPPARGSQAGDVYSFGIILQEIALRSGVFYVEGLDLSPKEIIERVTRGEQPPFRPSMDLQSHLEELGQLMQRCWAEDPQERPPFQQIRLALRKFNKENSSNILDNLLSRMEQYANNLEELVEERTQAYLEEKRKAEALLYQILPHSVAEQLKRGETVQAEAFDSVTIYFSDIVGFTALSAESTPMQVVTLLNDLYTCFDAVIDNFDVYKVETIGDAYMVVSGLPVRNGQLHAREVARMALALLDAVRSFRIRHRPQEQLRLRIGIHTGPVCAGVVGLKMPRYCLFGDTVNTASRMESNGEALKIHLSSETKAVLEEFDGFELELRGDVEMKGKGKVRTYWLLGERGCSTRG

Question: Which “reported human plasma half-life” value [1] does the source give for `CC[C@H](C)[C@@H]1NC(=O)[C@H](CCCNC(=N)N)NC(=O)[C@H](CC(=O)O)NC(=O)[C@H](CC(C)C)NC(=O)[C@H](CCCCN)NC(=O)[C@H](CC(C)C)NC(=O)CNC(=O)[C@H](Cc2ccccc2)NC(=O)[C@@H](NC(=O)CNC(=O)[C@H](CCCCN)NC(=O)[C@H](CO)NC(=O)[C@H](CC(C)C)NC(=O)CN)CSSC[C@@H](C(=O)O)NC(=O)CNC(=O)[C@H](CC(C)C)NC(=O)CNC(=O)[C@H](CO)NC(=O)[C@H](CCSC)NC(=O)[C@H](CO)NC(=O)CNC1=O` [hCNP] here?
Answer: about 2 minutes

Question: With `CCCCCCC(=O)N[C@H]1CSSC[C@@H](C(=O)N[C@@H](Cc2ccc(O)cc2)C(=O)N2C[C@H](C(N)=O)NC(=O)[C@@H]2CCCNC(=N)N)NC(=O)[C@H](CO)NC(=O)[C@H]([C@@H](C)CC)NC(=O)[C@H](CCCNC(=N)N)NC(=O)[C@H](CC(=O)O)NC(=O)[C@@H](CCCC)NC(=O)[C@H](CCCNC(=N)N)NC(=O)CNC(=O)[C@@H](C)NC(=O)[C@H](Cc2ccccc2)NC(=O)[C@H](Cc2c[nH]cn2)NC1=O` [mimetic of formula IV] (Heptanoyl-CHF[dA]GR[dNle]DRISCY-X1; disulfide 1-12) as the compound, how does the Emax (hNPRB (human NPRB)) read?
Answer: 1 ± 1%

Question: What about the half-life [2] of the same compound?
Answer: ~3 h

Question: What about the “Kel (apparent terminal elimination rate constant)” value (plasma cGMP; dose 0.7 μg/kg) of the same compound?
Answer: 0.231 ± 0.025 h⁻¹

Question: And the “Kel (apparent terminal elimination rate constant)” value (plasma cGMP; dose 1.0 μg/kg)?
Answer: 1.05 ± 1.22 h⁻¹

Question: What about the half-life ([3]; 0.7 ug/kg) of the same compound?
Answer: 3.03 ± 0.345 h

Question: And the half-life ([3]; 1 ug/kg)?
Answer: 2.98 ± 3.61 h

Question: And the Emax (human NPRA; HEK293, hNPRA, read-out: hNPRA Function (cGMP) Emax (%))?
Answer: 94 ± 8%

Question: And the “Function (cGMP) Emax (% of ANP response)” value (human NPRA; human NPRA)?
Answer: 94 ± 8 % of ANP response

Question: What about the “Function (cGMP) Emax (% of ANP response)” value (rat NPRA) of the same compound?
Answer: 98 ± 7 % of ANP response
